Source: patent US20230357193A1, “COMPOUND CAPABLE OF INHIBITING AND DEGRADING ANDROGEN RECEPTORS, AND PHARMACEUTICAL COMPOSITIONS AND PHARMACEUTICAL USES THEREOF” (Sichuan Haisco Pharmaceutical Co., Ltd., priority 2020, published 2023)
Like-named read-outs stand apart in the source and are kept apart here.

How the values were obtained:
[1] = test system: Prostate cancer cells VCaP; experiment: Experiment on inhibiting VCaP cell proliferation (CellTiter-Glo, with 0.1 nM R1881); type: cell-based; settings: Homo sapiens, 168 h, read-out: GI50 for inhibition of VCaP cells
Procedure: Prostate cancer cells VCaP were purchased from ATCC, the cell medium was 1640 + 10% FBS, and the cells were cultured in an incubator at 37° C. under 5% CO2. On day 1, the cells in an exponential phase were collected. With a 1% css-FBS phenol red-free medium, the cell suspension was adjusted to a corresponding concentration, plated into T0 wells at 7500 cells/well and incubated for 3 days. After the incubation was completed, R1881 at a final concentration of 0.1 nM and compounds at different concentrations were added, and the plate was placed in the incubator and incubated for another 7 days. On the day of the addition, T0 plate was detected using a CellTiter-Glo kit and recorded as RLU0. After the incubation was completed, 100 µL of mediums was pipetted from each well. According to operation instructions for a CellTiter-Glo kit (Promega, G7573), 50 µL of CellTiter-Glo reagents, which were already pre-melted and equilibrated to room temperature, were then added to each well, and the mixtures were uniformly mixed for 2 min using a microplate shaker. The plate was placed at room temperature for 10 min, and then […] signal values were measured using a microplate reader (PHERAstar FSX). The results were processed according to formula (1), the inhibition rate of the compound at different concentrations was calculated, and the GI50 value of the compound with an inhibition rate of 50% was calculated using origin9.2 software, wherein RLU compound was the readout of the treated group, and RLUcontrol was the average value of the solvent control group.

[2] = Pharmacokinetic experiment in rats; type: in vivo; settings: male SD rats, i.g. 20 mg/kg
Procedure: Objective: in this experiment, a single dose of each test compound was administered to SD rats intravenously and intragastrically, the concentrations of the test compound in plasma of rats were measured, and the pharmacokinetic characteristics and bioavailability of the test compound in rats were evaluated.
Experimental animals: male SD rats, 200-250 g, 6-8 weeks old, 6 rats/compound, purchased from CHENGDU DOSSY EXPERIMENTAL ANIMALS CO., LTD.
Experimental method: on the day of the experiment, six SD rats were randomly grouped according to their body weights. The animals were fasted but with water available for 12 to 14 hours one day before the administration, and were fed 4 h after the administration.
Sampling: before and after the administration, 0.1 mL of blood was taken from the orbit of the rats under isoflurane anesthesia and placed in an EDTAK2 centrifuge tube. Centrifugation was carried out at 5000 rpm at 4° C. for 10 min, and the plasma was collected.
Time points for plasma collection in G1 and G2 groups: 0, 5 min, 15 min, 30 min, 1 h, 2 h, 4 h, 6 h, 8 h, and 24 h.
Before analysis and detection, all samples were stored at -80° C. The samples were analyzed quantitatively by LC-MS/MS.

[3] = test system: Prostate cancer cells 22RV1; experiment: Experiment on inhibiting 22RV1 cell proliferation (CellTiter-Glo); type: cell-based; settings: Homo sapiens, 168 h, 22RV1 cells, 7 days incubation, read-out: IC50 for inhibition of 22RV1 cells
Procedure: Prostate cancer cells 22RV1 were purchased from ATCC, the cell medium was RPMI 1640 + 10% FBS, and the cells were cultured in an incubator at 37° C. under 5% CO2. On day 1, the cells in an exponential phase were collected. With a 1% css-FBS phenol red-free medium, the cell suspension was adjusted to a corresponding concentration, plated at 2000 cells/well and incubated overnight. On day 2, compounds at different concentrations were added, and the plate was placed in the incubator and incubated for another 7 days. After the incubation was completed, according to operation instructions for a CellTiter-Glo kit (Promega, G7573), 50 µL of CellTiter-Glo reagents, which were already pre-melted and equilibrated to room temperature, were added to each well, and the mixtures were uniformly mixed for 2 min using a microplate shaker. The plate was placed at room temperature for 10 min, and then […] signal values were measured using a microplate reader (PHERAstar FSX). The results were processed according to formula (2), the inhibition rate of the compound at different concentrations was calculated, and the IC50 value of the compound with an inhibition rate of 50% was calculated using origin9.2 software with DoseResp function, wherein RLUcompound was the readout of the treated group, and RLUcontrol was the average value of the DMSO solvent control group.

[4] = VCaP cells, 0.1 nM R1881, 7 days incubation, CellTiter-Glo

## CC(C)(C(=O)Nc1ccc(C#N)c(C(F)(F)F)c1)n1cc(C2CCN(CC3CCN(c4ccc5c(c4)C(=O)N(C4CCC(=O)NC4=O)C5=O)C3)CC2)cn1 (stereo not shown) [Compound 2, N-(4-cyano-3-(trifluoromethyl)phenyl)-2-(4-(1-((1-(2-(2,6-dioxopiperidin-3-yl)-1,3-dioxoisoindolin-5-yl)pyrrolidin-3-yl)methyl)piperidin-4-yl)-1H-pyrazol-1-yl)-2-methylpropanamide]
[1]; [4]
  GI50: 4790 nM

## CC(C)(C(=O)Nc1ccc(C#N)c(C(F)(F)F)c1)n1cc(C2CCN(C3CCC4(CC3)CN(c3ccc5c(c3)C(=O)N(C3CCC(=O)NC3=O)C5=O)C4)CC2)cn1 (stereo not shown) [Compound 3, N-(4-cyano-3-(trifluoromethyl)phenyl)-2-(4-(1-(2-(2-(2,6-dioxopiperidin-3-yl)-1,3-dioxoisoindolin-5-yl)-2-azaspiro[3.5]nonan-7-yl)piperidin-4-yl)-1H-pyrazol-1-yl)-2-methylpropanamide]
[1]; [4]
  GI50: 3090 nM

## N#Cc1ccc(NC(=O)C2(n3cc(C4CCN(CC5CCN(c6ccc7c(c6)C(=O)N(C6CCC(=O)NC6=O)C7=O)C5)CC4)cn3)CCC2)cc1C(F)(F)F (stereo not shown) [Compound 4]
[1]; [4]
  GI50: 1810 nM

## CC(C)(C(=O)Nc1ccc(C#N)c(C(F)(F)F)c1)n1cc(C2CCN(c3ccc4c(c3)C(=O)N(C3CCC(=O)NC3=O)C4=O)CC2)cn1 (stereo not shown) [Compound 5, N-(4-cyano-3-(trifluoromethyl)phenyl)-2-(4-(1-(2-(2,6-dioxopiperidin-3-yl)-1,3-dioxoisoindolin-5-yl)piperidin-4-yl)-1H-pyrazol-1-yl)-2-methylpropanamide]
[1]; [4]
  GI50: 1910 nM

## N#Cc1ccc(NC(=O)C2(n3cc(C#CC4CN(C5CN(c6ccc7c(c6)C(=O)N(C6CCC(=O)NC6=O)C7=O)C5)C4)cn3)CCC2)cc1C(F)(F)F (stereo not shown) [Compound 6, N-[4-cyano-3-(trifluoromethyl)phenyl]-1-[4-[2-[1-[1-[2-(2,6-dioxo-3-piperidyl)-1,3-dioxo-isoindolin-5-yl]azetidin-3-yl]azetidin-3-yl]ethynyl]pyrazol-1-yl]cyclobutanecarboxamide]
[1]; [4]
  GI50: 1690 nM

## N#Cc1ccc(NC(=O)C2(n3cc(C#CC4CN(c5ccc6c(c5)C(=O)N(C5CCC(=O)NC5=O)C6=O)C4)cn3)CCC2)cc1C(F)(F)F (stereo not shown) [Compound 7, N-[4-cyano-3-(trifluoromethyl)phenyl]-1-[4-[2-[1-[2-(2,6-dioxo-3-piperidyl)-1,3-dioxo-isoindolin-5-yl]azetidin-3-yl]ethynyl]pyrazol-1-yl]cyclobutanecarboxamide]
[1]; [4]
  GI50: 470 nM

## CC(C)(C(=O)Nc1ccc(C#N)c(C(F)(F)F)c1)n1cc(C#CC2CN(C3CN(c4ccc5c(c4)C(=O)N(C4CCC(=O)NC4=O)C5=O)C3)C2)cn1 (stereo not shown) [Compound 8, N-(4-cyano-3-(trifluoromethyl)phenyl)-2-(4-((1′-(2-(2,6-dioxopiperidin-3-yl)-1,3-dioxoisoindolin-5-yl)-[1,3′-biazetidin]-3-yl)ethynyl)-1H-pyrazol-1-yl)-2-methylpropanamide]
[1]; [4]
  GI50: 3960 nM

## CC(C)(C(=O)Nc1ccc(C#N)c(C(F)(F)F)c1)n1cc(C#CC2CN(c3ccc4c(c3)C(=O)N(C3CCC(=O)NC3=O)C4=O)C2)cn1 (stereo not shown) [Compound 9, N-(4-cyano-3-(trifluoromethyl)phenyl)-2-(4-((1-(2-(2,6-dioxopiperidin-3-yl)-1,3-dioxoisoindolin-5-yl)azetidin-3-yl)ethynyl)-1H-pyrazol-1-yl)-2-methylpropanamide]
[2]
  Oral bioavailability: Yes
[2]; rat, po, plasma
  AUC(0-t): 45600 ± 3720 ng·h/mL
  half-life: 24 ± 10 h
[1]; VCaP
  GI50: 180 nM
[3]
  IC50: 78 nM

## CC(C)(C(=O)Nc1ccc(C#N)c(C(F)(F)F)c1)n1cc(C#CC2CCN(c3ccc4c(c3)C(=O)N(C3CCC(=O)NC3=O)C4=O)CC2)cn1 (stereo not shown) [Compound 10, N-(4-cyano-3-(trifluoromethyl)phenyl)-2-(4-((1-(2-(2,6-dioxopiperidin-3-yl)-1,3-dioxoisoindolin-5-yl)piperidin-4-yl)ethynyl)-1H-pyrazol-1-yl)-2-methylpropanamide]
[1]; [4]
  GI50: 330 nM
